# Results as given in publication PMC8006202, “Influence of YES1 Kinase and Tyrosine Phosphorylation on the Activity of OCT1” (Frontiers in Pharmacology, 2021).
# What was measured:
# mouse OCT1 (mOCT1) = molecular target: T1, mouse OCT1 (mOCT1) (Mus musculus, UniProt O08966); experiment: Cellular uptake of [14C] TEA in HEK293 cells overexpressing mOCT1, with or without inhibitor; type: cell-based
# T1 construct: expressed in transfected cells
# T1 sequence (O08966 1-556): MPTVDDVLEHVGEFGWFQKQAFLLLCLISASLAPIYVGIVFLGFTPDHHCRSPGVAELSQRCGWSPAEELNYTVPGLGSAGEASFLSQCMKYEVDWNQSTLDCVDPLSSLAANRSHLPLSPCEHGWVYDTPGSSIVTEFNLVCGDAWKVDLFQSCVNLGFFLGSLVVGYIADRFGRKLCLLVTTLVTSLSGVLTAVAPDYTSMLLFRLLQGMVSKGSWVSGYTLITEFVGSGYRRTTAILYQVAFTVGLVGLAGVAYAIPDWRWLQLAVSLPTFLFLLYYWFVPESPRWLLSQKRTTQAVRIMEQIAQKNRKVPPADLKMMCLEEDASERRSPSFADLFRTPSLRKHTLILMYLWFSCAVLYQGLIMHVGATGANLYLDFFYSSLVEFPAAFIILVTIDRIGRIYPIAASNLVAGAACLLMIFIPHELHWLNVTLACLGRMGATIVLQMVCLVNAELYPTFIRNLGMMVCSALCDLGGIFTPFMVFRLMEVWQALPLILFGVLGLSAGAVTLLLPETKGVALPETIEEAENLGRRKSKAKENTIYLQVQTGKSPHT
# Description: Human embryonic kidney (HEK293) cells were obtained from the American Type Culture Collection (ATCC, Manassas, VA). HEK293 cells stably transfected with mouse OCT1 (mOCT1) or human OCT1 (hOCT1) were cultured in Dulbecco’s Modified Eagle Media (DMEM) media supplemented with 10% fetal bovine serum (FBS) and grown at 37°C in a humidified incubator containing 5% CO2. Radiolabeled [^14C] TEA and [^14C] metformin were obtained from American Radiochemicals (St. Louis, MO). Cellular uptake assays were performed 48 h following transient transfection by Lipofectamine 3000 Transfection Reagent (Thermo Fisher Scientific, Waltham, MA). ON-TARGETplus Human YES1 siRNA was obtained from Dharmacon (Lafayette, CO). RNA extraction kits were obtained from Omega Bio-tek (Norcross, GA).
# (§1) Uptake assays were performed with radiolabeled TEA (2 µM) or metformin (5 µM) as described previously ([Sprowl et al., 2013]; [Pabla et al., 2015]) in the presence or absence of TKIs. The results were normalized to uptake values in cells stably transfected with an empty vector treated with vehicle alone (Supplementary Figure S1). Prior to cellular accumulation experiments, cells were grown to 90% confluence on poly-lysine coated multi-well plates. For uptake studies, cells were rinsed with warm PBS and incubated in the presence of a vehicle or inhibitor, prepared in serum and phenol red-free DMEM media for 15 min. Subsequently, media was removed followed by the addition of radiolabeled TEA and metformin along with inhibitor, and cellular uptake was measured after a 15-min co-incubation period. Total radioactivity originating from TEA and metformin was determined using liquid scintillation counting after lysing the cells with 1 N NaOH, a neutralizing step with 2 M HCl. A Pierce protein assay (Thermo Fisher Scientific, Waltham, MA) was used to normalize radioactivity readings to account for variation in cell number between samples.
# OCT3 = molecular target: T2, OCT3 (Homo sapiens, UniProt O75751); experiment: OCT3 transport inhibition by TKIs (Supplementary Figure S2); type: cell-based
# T2 sequence (O75751 1-556): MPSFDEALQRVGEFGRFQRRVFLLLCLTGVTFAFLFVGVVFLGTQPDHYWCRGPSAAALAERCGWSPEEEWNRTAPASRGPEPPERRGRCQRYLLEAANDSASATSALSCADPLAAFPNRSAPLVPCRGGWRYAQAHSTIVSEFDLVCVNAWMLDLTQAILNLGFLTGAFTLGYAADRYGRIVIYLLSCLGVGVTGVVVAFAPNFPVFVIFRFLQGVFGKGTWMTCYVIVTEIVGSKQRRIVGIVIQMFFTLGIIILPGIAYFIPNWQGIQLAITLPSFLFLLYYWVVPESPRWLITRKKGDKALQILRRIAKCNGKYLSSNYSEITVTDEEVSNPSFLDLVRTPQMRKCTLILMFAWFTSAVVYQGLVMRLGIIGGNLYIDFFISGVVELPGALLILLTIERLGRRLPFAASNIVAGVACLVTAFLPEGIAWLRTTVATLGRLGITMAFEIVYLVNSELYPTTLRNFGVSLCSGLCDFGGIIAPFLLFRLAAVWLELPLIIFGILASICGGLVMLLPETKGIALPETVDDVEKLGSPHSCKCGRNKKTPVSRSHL
# Description: as §1
# YES1 / hOCT1 = experiment: Chemical genetics: hOCT1 uptake assay in HEK293 cells transfected with wild-type YES1 or T348I gatekeeper mutant, then dasatinib; type: cell-based, human; conditions: HEK293-hOCT1, dasatinib 1 µM 15 min, [14C] TEA uptake
# Description: as §1, with “The” for “Uptake assays were performed with radiolabeled TEA (2 µM) or metformin (5 µM) as described previously ([Sprowl et al., 2013]; [Pabla et al., 2015]) in the presence or absence of TKIs. The”
# OCT1 = test system: OCT1; set-up: method as in Furmanski et al., 2013; conditions: ref Furmanski et al., 2013; cited from earlier work
# hepatic OCT1 = molecular target: T3, hepatic OCT1 (Mus musculus, UniProt O08966); experiment: Plasma isobutyryl L-carnitine (IBC) after a single oral dose of dasatinib in mice; type: in vivo; set-up: from tissue; host or cells: liver of wild-type mice, in vivo; conditions: single oral dose 15 mg/kg
# T3 sequence (O08966 1-556): T1 sequence (O08966 1-556)
# Description: Mice were accommodated in a temperature-, and light-controlled environment with access to water and food. OCT1/2/MATE1-deficient mice was obtained by crossing male OCT1/2-knockout mice with female MATE1-knockout mice to generate heterozygous breeders. The MATE1-deficient mice used to generate this model were kindly provided by Dr. Yan Shu (University of Maryland, Baltimore, MD), and backcrossed onto an FVB background. Next, heterozygous males and females were used to obtain OCT1/2/MATE1-knockout mice. Genetic deletion of OCT1/2 and MATE1 was confirmed by performing RT-PCR analysis.
# TEA (0.2 mg/kg) via the caudal vein. Concentrations of total TEA-derived radioactivity in plasma and homogenized liver samples were measured by liquid scintillation counting.
# A Vanquish UHPLC paired with a Quantiva triple quadrupole mass spectrometer (Thermo Fisher Scientific) was used to perform LC-MS/MS analysis of IBC and the internal standard, isobutyryl L-carnitine-d3 (Cayman Chemical, Ann Arbor, MI). Chromatographic separation of analytes was achieved on an Accucore aQ column (150 mm × 2.1 mm, dp = 2.6 μm) with a C18 AQUASIL guard cartridge (2.1 mm × 10 mm, dp = 3 μm). The temperature of the column and autosampler was retained at 40 and 4°C, respectively. […] The lower limit of quantification for IBC was 0.1 ng/ml.
smiles,measurement,setting,value
"Cc1nc(Nc2ncc(C(=O)Nc3c(C)cccc3Cl)s2)cc(N2CCN(CCO)CC2)n1 [Dasatinib, dasatinib]",IC50,"mouse OCT1 (mOCT1); HEK293-mOCT1, [14C] TEA 2 µM, 15 min pre-incubation + 15 min co-incubation, read-out: IC50, mOCT1-mediated transport of TEA",1090 nM
same,Ki,"mouse OCT1 (mOCT1); read-out: inhibition constant (Ki), Dixon plot, mOCT1",870 nM
same,OCT3 function in presence of TKI,OCT3,potently inhibiting
same,dasatinib-mediated OCT1 inhibition in cells with TKI-resistant YES1 (T348I gatekeeper) mutant,YES1 / hOCT1,rescue
same,dasatinib-mediated OCT1 inhibition in cells with YES1 wild-type construct,YES1 / hOCT1,retained sensitivity
same,transported substrate of OCT1,OCT1,not themselves transported substrate
same,"plasma levels of IBC after dasatinib, OCT1/2-deficient or OCT1/2/MATE1-deficient mice",hepatic OCT1,not
same,"plasma levels of IBC after dasatinib, wild-type mice",hepatic OCT1; wild-type mice,"transient, statistically significant increase"
